Laboratory results published in ChEMBL document CHEMBL3526034 (Drug Metab Dispos, 2013).

Experiments:
Cytochrome P450 3A4 = Cytochrome P450 3A4 (Homo sapiens, UniProt P08684); assay: Drug metabolism in supersomes expressing human recombinant CYP3A4 assessed as intrinsic clearance for NADPH-fortified enzyme-mediated metabolite M3 ((4R,12aS)-N-((3,5-difluorophenyl)(hydroxy)methyl)-7-hydroxy-4-methyl-6,8-dioxo-3,4,6,8,12,12a-hexahydro-2H-[1,3]oxazino[3,2-d]pyrido[1,2-a]pyrazine-9-carboxamide) formation at 5 uM after 120 mins by radio-HPLC analysis; assay type: ADME
Cytochrome P450 2C9 = Cytochrome P450 2C9 (Homo sapiens, UniProt P11712); assay: Inhibition of CYP2C9 in human liver microsomes using diclofenac as substrate preincubated for 20 mins with substrate prior to initiation of reaction with NADPH by HPLC analysis; assay type: ADME
Cytochrome P450 2C8 = target: T1, Cytochrome P450 2C8 (Homo sapiens, UniProt P10632); assay: Inhibition of CYP2C8 in human liver microsomes using rosiglitazone as substrate preincubated for 20 mins with substrate prior to initiation of reaction with NADPH by HPLC analysis; assay type: ADME
T1 sequence (P10632 whole entry): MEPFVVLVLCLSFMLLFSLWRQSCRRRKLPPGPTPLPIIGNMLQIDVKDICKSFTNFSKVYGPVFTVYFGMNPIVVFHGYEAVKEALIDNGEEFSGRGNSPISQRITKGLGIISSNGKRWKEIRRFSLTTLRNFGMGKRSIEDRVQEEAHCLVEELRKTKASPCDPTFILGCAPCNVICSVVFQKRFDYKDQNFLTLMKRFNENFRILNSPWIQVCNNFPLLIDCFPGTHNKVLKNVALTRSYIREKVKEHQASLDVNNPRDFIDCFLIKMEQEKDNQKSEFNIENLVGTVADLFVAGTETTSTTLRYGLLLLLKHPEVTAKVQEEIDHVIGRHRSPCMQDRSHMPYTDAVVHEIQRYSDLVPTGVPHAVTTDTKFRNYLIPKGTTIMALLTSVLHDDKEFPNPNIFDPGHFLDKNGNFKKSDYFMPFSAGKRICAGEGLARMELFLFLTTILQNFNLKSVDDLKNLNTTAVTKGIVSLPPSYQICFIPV

[1] = In vitro passive membrane permeability across dog MDCK2 cells at 3 uM using fasted state-simulated intestinal fluid buffer at pH 7.4 on donor side and 1% human serum albumin at pH 7.4 on receiver side by liquid scintillation counting analysis; assay type: ADME, cell-based, Canis lupus familiaris, MDCK-II; details: MDCK, read-out: permeability
BCRP (ABCG2) = target: T2, BCRP (ABCG2) (Homo sapiens, UniProt Q9UNQ0); assay: Activity at human BCRP expressed in MDCK2 cells assessed as basolateral to apical mass balance at 3 uM by liquid scintillation counting analysis; assay type: ADME, cell-based, MDCK-II; details: read-out: Activity
T2 sequence (Q9UNQ0 whole entry): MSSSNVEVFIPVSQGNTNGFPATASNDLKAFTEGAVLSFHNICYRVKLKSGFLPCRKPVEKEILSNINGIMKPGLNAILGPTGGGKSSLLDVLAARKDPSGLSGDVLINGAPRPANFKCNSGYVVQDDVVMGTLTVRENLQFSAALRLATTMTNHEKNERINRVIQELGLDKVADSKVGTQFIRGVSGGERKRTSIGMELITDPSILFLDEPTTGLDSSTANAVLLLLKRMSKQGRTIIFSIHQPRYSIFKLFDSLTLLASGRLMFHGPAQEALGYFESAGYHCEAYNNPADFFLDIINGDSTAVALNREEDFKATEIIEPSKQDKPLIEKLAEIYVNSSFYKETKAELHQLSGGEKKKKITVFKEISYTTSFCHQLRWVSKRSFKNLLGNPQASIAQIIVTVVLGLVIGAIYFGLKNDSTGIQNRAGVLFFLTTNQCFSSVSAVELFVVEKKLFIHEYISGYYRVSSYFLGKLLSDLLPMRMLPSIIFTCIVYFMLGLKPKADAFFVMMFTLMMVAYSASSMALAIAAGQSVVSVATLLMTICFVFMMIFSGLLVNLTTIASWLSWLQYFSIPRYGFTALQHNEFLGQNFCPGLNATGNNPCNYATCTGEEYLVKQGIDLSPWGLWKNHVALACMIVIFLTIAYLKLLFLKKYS

[2] = target: UDP-glucuronosyltransferase 1A3 (Homo sapiens, UniProt P35503); assay: Drug metabolism assessed as UDPGA-fortified human recombinant UGT1A3-mediated DTG glucuronide metabolite ((2S,3S,4S,5R,6S)-6-((4R,12aS)-9-(2,4-difluorobenzylcarbamoyl)-4-methyl-6,8-dioxo-3,4,6,8,12,12a-hexahydro-2H-[1,3]oxazino[3,2-d]pyrido[1,2-a]pyrazin-7-yloxy)-3,4,5-trihydroxytetrahydro-2H-pyran-2-carboxylic acid) formation at 16 uM after 120 mins by radio-HPLC analysis; assay type: ADME; details: recombinant enzyme
Liver microsome = assay: Drug metabolism in NADPH-fortified human liver microsomes assessed as metabolite M3 ((4R,12aS)-N-((3,5-difluorophenyl)(hydroxy)methyl)-7-hydroxy-4-methyl-6,8-dioxo-3,4,6,8,12,12a-hexahydro-2H-[1,3]oxazino[3,2-d]pyrido[1,2-a]pyrazine-9-carboxamide) formation at 5 uM after 120 mins treated 5 mins after selective CYP3A4 inhibitor azamulin addition by radio-HPLC analysis; assay type: ADME
Cytochrome P450 2A6 = Cytochrome P450 2A6 (Homo sapiens, UniProt P11509); assay: Metabolism-dependent inhibition of CYP2A6 in human liver microsomes using coumarin as substrate preincubated for 20 mins with NADPH prior to initiation of reaction with probe substrate by HPLC analysis; assay type: ADME
[3] = target: ATP-dependent translocase ABCB1 (Homo sapiens, UniProt P08183); assay: Inhibition of MDR1 (unknown origin) expressed in MDCK2 cells assessed as basolateral to apical transport of [3H]digoxin at 100 uM after 90 mins by liquid scintillation counting analysis; assay type: ADME, cell-based; details: mdck-ii, 1.5 h
[4] = target: T3, UDP-glucuronosyltransferase 1A1 (Homo sapiens, UniProt P22309); assay: Drug metabolism in UDPGA-fortified human liver microsomes assessed as UGT1A1-mediated DTG glucuronide M2 ((2S,3S,4S,5R,6S)-6-((4R,12aS)-9-(2,4-difluorobenzylcarbamoyl)-4-methyl-6,8-dioxo-3,4,6,8,12,12a-hexahydro-2H-[1,3]oxazino[3,2-d]pyrido[1,2-a]pyrazin-7-yloxy)-3,4,5-trihydroxytetrahydro-2H-pyran-2-carboxylic acid) formation after 120 mins measured per mg of protein by radio-HPLC analysis; assay type: ADME
T3 sequence (P22309 whole entry): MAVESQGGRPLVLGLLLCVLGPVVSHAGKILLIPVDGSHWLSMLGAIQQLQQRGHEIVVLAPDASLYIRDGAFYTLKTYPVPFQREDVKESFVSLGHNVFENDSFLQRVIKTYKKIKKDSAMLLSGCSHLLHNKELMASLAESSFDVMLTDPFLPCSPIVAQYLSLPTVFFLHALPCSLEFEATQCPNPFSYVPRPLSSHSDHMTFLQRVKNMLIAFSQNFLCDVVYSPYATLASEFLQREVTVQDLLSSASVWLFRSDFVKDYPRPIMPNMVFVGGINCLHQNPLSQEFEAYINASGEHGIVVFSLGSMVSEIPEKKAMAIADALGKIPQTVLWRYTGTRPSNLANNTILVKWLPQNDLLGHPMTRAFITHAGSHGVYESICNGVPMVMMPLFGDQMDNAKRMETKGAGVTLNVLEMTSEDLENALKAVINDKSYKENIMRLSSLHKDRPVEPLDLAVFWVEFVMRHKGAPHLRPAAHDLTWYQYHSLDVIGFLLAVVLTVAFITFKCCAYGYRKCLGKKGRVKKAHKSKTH

[5] = target: T4, Broad substrate specificity ATP-binding cassette transporter ABCG2 (Homo sapiens, UniProt Q9UNQ0); assay: Inhibition of BCRP (unknown origin) expressed in MDCK2 cells assessed as basolateral to apical transport of [14C]cimetidine after 90 mins by liquid scintillation counting analysis; assay type: ADME, cell-based, MDCK-II
T4 sequence (Q9UNQ0 whole entry): T2 sequence (Q9UNQ0 whole entry)

[6] = target: ATP-binding cassette sub-family C member 2 (Homo sapiens, UniProt Q92887); assay: Inhibition of human MRP2 expressed in baculovirus-infected Sf9 cell membrane vesicle using [3H]estradiol 17beta-D-glucuronide as substrate preincubated with vesicles for 5 mins prior to substrate addition by liquid scintillation counting analysis
Sequence of ATP-binding cassette sub-family C member 2 (Q92887 whole entry): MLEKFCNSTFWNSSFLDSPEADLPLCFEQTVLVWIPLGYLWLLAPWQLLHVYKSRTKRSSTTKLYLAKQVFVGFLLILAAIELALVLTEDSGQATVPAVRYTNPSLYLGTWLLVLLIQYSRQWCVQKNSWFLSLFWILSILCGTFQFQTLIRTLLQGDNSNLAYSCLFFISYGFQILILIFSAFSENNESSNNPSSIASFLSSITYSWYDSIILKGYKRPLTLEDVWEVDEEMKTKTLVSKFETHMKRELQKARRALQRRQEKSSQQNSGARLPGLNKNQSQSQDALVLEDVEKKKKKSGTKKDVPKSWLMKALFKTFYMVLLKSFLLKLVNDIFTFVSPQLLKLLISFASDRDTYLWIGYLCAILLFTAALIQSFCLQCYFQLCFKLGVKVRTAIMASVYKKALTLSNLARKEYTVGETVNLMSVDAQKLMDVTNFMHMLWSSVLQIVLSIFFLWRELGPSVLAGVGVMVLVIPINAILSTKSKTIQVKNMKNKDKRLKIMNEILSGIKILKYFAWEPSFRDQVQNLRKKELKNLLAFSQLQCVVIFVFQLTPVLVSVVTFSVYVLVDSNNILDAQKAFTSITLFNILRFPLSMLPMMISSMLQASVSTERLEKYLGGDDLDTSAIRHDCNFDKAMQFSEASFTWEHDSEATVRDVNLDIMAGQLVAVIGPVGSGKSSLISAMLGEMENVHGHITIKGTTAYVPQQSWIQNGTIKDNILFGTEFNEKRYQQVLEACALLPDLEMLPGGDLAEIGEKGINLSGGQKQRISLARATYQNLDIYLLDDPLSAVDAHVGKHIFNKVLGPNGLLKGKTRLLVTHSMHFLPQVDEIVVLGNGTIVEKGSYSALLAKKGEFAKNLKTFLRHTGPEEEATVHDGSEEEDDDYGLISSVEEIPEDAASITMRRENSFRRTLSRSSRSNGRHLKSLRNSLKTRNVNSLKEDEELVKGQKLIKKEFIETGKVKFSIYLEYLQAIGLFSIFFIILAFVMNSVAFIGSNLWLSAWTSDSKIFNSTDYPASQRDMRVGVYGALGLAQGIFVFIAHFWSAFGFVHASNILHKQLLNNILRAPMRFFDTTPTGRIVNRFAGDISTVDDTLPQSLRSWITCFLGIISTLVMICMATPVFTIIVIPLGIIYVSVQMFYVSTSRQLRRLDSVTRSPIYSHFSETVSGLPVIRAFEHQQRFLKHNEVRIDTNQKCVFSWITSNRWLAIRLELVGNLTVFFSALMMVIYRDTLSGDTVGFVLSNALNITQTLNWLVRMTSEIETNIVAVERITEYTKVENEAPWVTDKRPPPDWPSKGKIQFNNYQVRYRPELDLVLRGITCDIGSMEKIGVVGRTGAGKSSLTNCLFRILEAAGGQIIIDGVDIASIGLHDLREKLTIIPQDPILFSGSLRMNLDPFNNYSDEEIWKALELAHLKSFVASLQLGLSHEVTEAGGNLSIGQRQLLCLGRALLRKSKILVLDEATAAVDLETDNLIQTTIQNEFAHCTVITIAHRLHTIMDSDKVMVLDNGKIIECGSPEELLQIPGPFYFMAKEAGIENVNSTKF

Sequence of ATP-dependent translocase ABCB1 (P08183 whole entry): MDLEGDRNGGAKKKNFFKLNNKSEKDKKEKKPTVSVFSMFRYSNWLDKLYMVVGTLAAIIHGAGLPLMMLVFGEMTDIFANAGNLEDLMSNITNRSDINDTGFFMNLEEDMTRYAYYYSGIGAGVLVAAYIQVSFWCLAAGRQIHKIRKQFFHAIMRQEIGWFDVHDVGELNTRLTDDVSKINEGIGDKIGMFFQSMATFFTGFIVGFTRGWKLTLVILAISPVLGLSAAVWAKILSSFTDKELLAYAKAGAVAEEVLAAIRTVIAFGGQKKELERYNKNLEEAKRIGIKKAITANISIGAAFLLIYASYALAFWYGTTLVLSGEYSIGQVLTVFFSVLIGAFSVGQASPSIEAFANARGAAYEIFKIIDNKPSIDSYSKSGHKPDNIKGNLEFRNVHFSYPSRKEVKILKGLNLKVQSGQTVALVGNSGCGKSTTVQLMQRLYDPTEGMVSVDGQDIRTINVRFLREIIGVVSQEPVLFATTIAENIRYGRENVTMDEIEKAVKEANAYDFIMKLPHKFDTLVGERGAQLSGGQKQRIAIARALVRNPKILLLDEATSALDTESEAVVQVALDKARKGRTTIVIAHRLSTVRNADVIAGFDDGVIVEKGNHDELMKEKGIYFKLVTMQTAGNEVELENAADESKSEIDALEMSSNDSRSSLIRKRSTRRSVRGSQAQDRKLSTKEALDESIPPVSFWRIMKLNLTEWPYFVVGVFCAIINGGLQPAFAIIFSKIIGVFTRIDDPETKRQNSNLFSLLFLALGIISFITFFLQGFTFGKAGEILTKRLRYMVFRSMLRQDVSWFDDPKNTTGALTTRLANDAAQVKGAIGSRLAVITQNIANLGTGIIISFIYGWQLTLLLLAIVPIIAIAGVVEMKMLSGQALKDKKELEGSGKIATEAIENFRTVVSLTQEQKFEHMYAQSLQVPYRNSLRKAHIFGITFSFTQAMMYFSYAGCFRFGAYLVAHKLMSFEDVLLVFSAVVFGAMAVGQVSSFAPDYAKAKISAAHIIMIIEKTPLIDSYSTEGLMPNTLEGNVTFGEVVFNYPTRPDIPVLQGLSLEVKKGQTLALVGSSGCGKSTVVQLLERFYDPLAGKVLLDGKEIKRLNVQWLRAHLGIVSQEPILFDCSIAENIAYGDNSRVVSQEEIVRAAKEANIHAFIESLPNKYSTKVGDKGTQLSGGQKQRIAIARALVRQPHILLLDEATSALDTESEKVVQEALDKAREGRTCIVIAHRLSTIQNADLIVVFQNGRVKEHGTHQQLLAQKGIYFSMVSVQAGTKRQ
Sequence of Cytochrome P450 3A4 (P08684 whole entry): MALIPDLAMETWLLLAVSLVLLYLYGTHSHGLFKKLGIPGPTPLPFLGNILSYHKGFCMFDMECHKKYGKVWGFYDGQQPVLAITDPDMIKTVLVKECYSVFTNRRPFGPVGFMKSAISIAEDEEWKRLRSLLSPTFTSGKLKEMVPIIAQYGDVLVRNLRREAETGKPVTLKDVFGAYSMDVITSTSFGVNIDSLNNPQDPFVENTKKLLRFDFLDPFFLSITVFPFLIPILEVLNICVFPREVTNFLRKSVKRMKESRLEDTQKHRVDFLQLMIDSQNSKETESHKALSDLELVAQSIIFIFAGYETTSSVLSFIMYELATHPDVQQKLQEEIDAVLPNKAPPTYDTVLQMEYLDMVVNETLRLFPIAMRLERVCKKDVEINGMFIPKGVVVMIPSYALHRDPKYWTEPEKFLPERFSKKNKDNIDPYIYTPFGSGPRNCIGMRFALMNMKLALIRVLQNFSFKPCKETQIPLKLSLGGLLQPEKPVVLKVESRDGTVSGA
Sequence of Cytochrome P450 2A6 (P11509 whole entry): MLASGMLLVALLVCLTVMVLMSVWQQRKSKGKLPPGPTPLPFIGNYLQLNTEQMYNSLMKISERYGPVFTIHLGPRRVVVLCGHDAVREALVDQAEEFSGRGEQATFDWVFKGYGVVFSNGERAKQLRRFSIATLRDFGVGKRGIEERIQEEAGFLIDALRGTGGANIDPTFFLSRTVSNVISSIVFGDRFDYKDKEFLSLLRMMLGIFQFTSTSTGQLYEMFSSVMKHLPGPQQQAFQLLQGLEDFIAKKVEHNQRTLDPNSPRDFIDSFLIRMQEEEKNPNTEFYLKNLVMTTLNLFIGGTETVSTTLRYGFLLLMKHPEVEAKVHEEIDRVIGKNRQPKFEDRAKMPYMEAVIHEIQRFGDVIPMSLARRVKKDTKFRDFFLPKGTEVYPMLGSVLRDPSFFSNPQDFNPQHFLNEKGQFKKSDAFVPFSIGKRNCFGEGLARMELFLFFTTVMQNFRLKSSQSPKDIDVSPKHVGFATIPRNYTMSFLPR
Sequence of UDP-glucuronosyltransferase 1A3 (P35503 whole entry): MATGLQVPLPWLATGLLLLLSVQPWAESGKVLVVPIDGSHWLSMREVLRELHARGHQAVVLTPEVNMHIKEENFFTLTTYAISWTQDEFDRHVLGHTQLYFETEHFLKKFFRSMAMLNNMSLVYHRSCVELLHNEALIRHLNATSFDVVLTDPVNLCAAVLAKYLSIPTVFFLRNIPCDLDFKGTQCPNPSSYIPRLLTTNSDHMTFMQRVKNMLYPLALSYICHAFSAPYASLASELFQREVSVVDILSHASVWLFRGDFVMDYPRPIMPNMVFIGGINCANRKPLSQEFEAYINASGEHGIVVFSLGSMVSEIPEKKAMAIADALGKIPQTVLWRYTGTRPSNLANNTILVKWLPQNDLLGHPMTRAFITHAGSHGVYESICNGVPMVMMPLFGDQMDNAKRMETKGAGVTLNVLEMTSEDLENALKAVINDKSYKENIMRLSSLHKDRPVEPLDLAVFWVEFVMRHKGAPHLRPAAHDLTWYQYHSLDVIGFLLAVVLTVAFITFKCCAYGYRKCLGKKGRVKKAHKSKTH
Sequence of Cytochrome P450 2C9 (P11712 whole entry): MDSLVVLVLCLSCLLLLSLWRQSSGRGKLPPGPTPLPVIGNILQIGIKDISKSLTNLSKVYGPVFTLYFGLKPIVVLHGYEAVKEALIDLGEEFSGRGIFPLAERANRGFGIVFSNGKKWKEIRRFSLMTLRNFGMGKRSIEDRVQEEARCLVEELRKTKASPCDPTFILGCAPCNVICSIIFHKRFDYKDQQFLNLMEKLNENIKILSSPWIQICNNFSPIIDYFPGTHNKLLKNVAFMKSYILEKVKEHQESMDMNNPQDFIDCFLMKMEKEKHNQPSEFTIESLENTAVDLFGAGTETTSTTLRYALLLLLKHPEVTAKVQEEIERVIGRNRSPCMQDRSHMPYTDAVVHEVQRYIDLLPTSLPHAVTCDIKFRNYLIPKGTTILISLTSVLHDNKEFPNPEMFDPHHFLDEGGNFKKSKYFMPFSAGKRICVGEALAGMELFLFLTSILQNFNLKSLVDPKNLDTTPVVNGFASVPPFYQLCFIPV

Question: With `C[C@@H]1CCO[C@H]2Cn3cc(C(=O)NCc4ccc(F)cc4F)c(=O)c(O)c3C(=O)N12` [DOLUTEGRAVIR] as the compound, how does the CL (Cytochrome P450 3A4) read?
Answer: The CL was 3 µL/min/mg.

Question: And the IC50 (Cytochrome P450 2C9)?
Answer: Its IC50 is > 100 µM.

Question: What about the IC50 (Cytochrome P450 2C8) of the same compound?
Answer: The IC50 was > 100 µM.

Question: And the Papp at 3 µM [1]?
Answer: Its Papp at 3 µM is 25.2 ×10⁻⁶ cm/s.

Question: And the recovery at 3 µM (BCRP (ABCG2))?
Answer: Its recovery at 3 µM is 85%.

Question: And the Drug metabolism [2]?
Answer: The Drug metabolism was “metabolite_detected”.

Question: What about the Drug metabolism (Liver microsome) of the same compound?
Answer: Its Drug metabolism is “metabolite_not_detected”.

Question: What about the IC50 (Cytochrome P450 2A6) of the same compound?
Answer: Its IC50 is > 100 µM.

Question: What about the “inhibition (INH)” value [3] of the same compound?
Answer: The value was 29%.

Question: What about the Vmax [4] of the same compound?
Answer: The Vmax was 409 pmol/min.

Question: And the IC50 [5]?
Answer: The IC50 was > 30 µM.

Question: What about the IC50 [6] of the same compound?
Answer: Its IC50 is > 100 µM.
